In ChEMBL document CHEMBL1201862, “PubChem BioAssay data set” (2004):
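Compound exposure: 48 hours, 5 concentrations, 96-well plates. GI50: concentration for 50% inhibition of growth.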 Calls of active or inactive are those of the source. No stated cut-off is given here; in the data, active = GI50 up to about 1.1 µM and inactive = higher. Where a SMILES comes first, the peptide text is derived from it. The star is where a group is joined. Boc = CC(C)(C)OC(=O)*

Key:
Assay in all cases: growth of human tumour cells (NCI), 48 h
[1] = test system: SF-295
[2] = test system: A549
[3] = test system: K562
[4] = test system: U-251
[5] = test system: SNB-75
[6] = test system: PC-3
[7] = test system: OVCAR-4
[8] = test system: NCI-H226
[9] = test system: OVCAR-5
[10] = test system: SK-MEL-28
[11] = test system: SF-539
[12] = test system: HCT-15
[13] = test system: NCI-H460
[14] = test system: UACC-257
[15] = test system: SF-268
[16] = test system: HOP-92
[17] = test system: HCT-116
[18] = test system: SN12C
[19] = test system: SR
[20] = test system: 786-0

Row | Structure (SMILES) | GI50 [1] | GI50 [2] | GI50 [3] | GI50 [4] | GI50 [5] | GI50 [6] | GI50 [7] | GI50 [8] | GI50 [9] | GI50 [10] | GI50 [11] | GI50 [12] | GI50 [13] | GI50 [14] | GI50 [15] | GI50 [16] | GI50 [17] | GI50 [18] | GI50 [19] | GI50 [20]
1 | N#C/N=[N+](\[O-])c1ccc(C(=O)O)cc1 | > 100 µM (inactive) | > 100 µM (inactive) | 15.4 µM (inactive) | 19 µM (inactive) | 23.1 µM (inactive) | 17.1 µM (inactive) | 21 µM (inactive) | 19.2 µM (inactive) | 20 µM (inactive) | 18.5 µM (inactive) | 16.3 µM (inactive) | 16.2 µM | 28.7 µM (inactive) | 18 µM (inactive) | 19.4 µM (inactive) | 20.4 µM (inactive) |  |  |  | 
2 | C=Cc1cnc([N+](=O)[O-])n1C | 35.2 µM (inactive) | 56 µM (inactive) |  | > 100 µM (inactive) |  | 40.8 µM (inactive) |  | > 100 µM (inactive) | > 100 µM (inactive) | 72.1 µM (inactive) | 74.1 µM (inactive) | 50.2 µM | 56.8 µM (inactive) | > 100 µM (inactive) | 46.7 µM (inactive) | 35.8 µM (inactive) | 57.1 µM (inactive) | > 100 µM (inactive) | 20.7 µM (inactive) | > 100 µM (inactive)
3 | C=CC[N+]12CN3CN(CN(C3)C1)C2 | > 100 µM (inactive) | 31.3 µM (inactive) | 19.2 µM (inactive) | 31.9 µM (inactive) | 25.1 µM (inactive) | 31.4 µM (inactive) | 26.2 µM (inactive) |  | 23.2 µM (inactive) | 21.3 µM (inactive) | 16.9 µM (inactive) | 22.6 µM | 24.2 µM (inactive) | 24.5 µM (inactive) | 24.6 µM (inactive) | 23.8 µM (inactive) | 19 µM (inactive) | 23.4 µM (inactive) |  | 
4 | CNc1ccc2c(c1)[C@@]1(C)c3ccccc3[C@@H](C2)N1C | 29.6 µM (inactive) | 30.2 µM (inactive) | 23.2 µM (inactive) | 20.4 µM (inactive) |  | 29.9 µM (inactive) | 30.7 µM (inactive) |  | 25.9 µM (inactive) |  |  | 19 µM | 18.4 µM (inactive) | 23.4 µM (inactive) | 44.4 µM (inactive) | 27.1 µM (inactive) | 16.1 µM (inactive) | 17.4 µM (inactive) | 22.6 µM (inactive) | 17.4 µM (inactive)
5 | COc1ccc(C(C2C(=O)N(C)C(=O)N(C)C2=O)C(F)(F)C(=O)N(C)C)cc1 (stereo not drawn) | > 100 µM (inactive) | > 100 µM (inactive) |  | > 100 µM (inactive) | > 100 µM (inactive) | > 100 µM (inactive) | > 100 µM (inactive) | > 100 µM (inactive) | > 100 µM (inactive) | > 100 µM (inactive) | > 100 µM (inactive) | > 100 µM | > 100 µM (inactive) | > 100 µM (inactive) | > 100 µM (inactive) | > 100 µM (inactive) | > 100 µM (inactive) |  |  | > 100 µM (inactive)
6 | COc1ccc(/C=N/n2c(C)n[nH]c2=O)c(OC)c1 | > 100 µM (inactive) | > 100 µM (inactive) | > 100 µM (inactive) | > 100 µM (inactive) | > 100 µM (inactive) | > 100 µM (inactive) | > 100 µM (inactive) | > 100 µM (inactive) | > 100 µM (inactive) | > 100 µM (inactive) | > 100 µM (inactive) | > 100 µM | > 100 µM (inactive) | > 100 µM (inactive) | > 100 µM (inactive) |  | > 100 µM (inactive) | > 100 µM (inactive) |  | > 100 µM (inactive)
7 | CCN(CC)CCCNc1c2c(Cl)cc(Cl)cc2nc2nc(O)nc(C)c12 | 59.8 µM (inactive) | 42.9 µM (inactive) | 44.1 µM (inactive) | 17.3 µM (inactive) |  | 30.7 µM (inactive) | 33.9 µM (inactive) | 55.2 µM (inactive) | 19.9 µM (inactive) | 30.6 µM (inactive) | > 100 µM (inactive) | > 100 µM | 20.2 µM (inactive) | 43 µM (inactive) | 23 µM (inactive) | 57.3 µM (inactive) | 17.1 µM (inactive) | 25.3 µM (inactive) | > 10 µM (inactive) | 18.7 µM (inactive)
8 | O=C1c2ccccc2C(=O)N1CC1(C(=O)O)NCCS1(=O)=O (stereo not drawn) | > 100 µM (inactive) | > 100 µM (inactive) | > 100 µM (inactive) | > 100 µM (inactive) |  | > 100 µM (inactive) | > 100 µM (inactive) | > 100 µM (inactive) | > 100 µM (inactive) | > 100 µM (inactive) | > 100 µM (inactive) | > 100 µM | > 100 µM (inactive) | > 100 µM (inactive) | > 100 µM (inactive) | > 100 µM (inactive) | > 100 µM (inactive) | > 100 µM (inactive) | > 100 µM (inactive) | > 100 µM (inactive)
9 | C/C(NC(=O)c1ccccc1)=C(/C(=O)c1ccccc1)[C@@H]1OC(C)(C)O[C@@H]1[C@H]1COC(C)(C)O1 | 30.9 µM (inactive) | 29.9 µM (inactive) | 20.9 µM (inactive) | 30.9 µM (inactive) |  | 30.4 µM (inactive) | 27.6 µM (inactive) | 33 µM (inactive) | 34.4 µM (inactive) | 52.4 µM (inactive) | 54 µM (inactive) | 32.8 µM | 20.7 µM (inactive) | 30.8 µM (inactive) | 35.6 µM (inactive) | 19.4 µM (inactive) | 19.5 µM (inactive) | 25.2 µM (inactive) | 19.5 µM (inactive) | 18.3 µM (inactive)
10 | NC(=O)c1ccccc1NC(=O)C(=O)C(c1cnc2ccc([N+](=O)[O-])cc2n1)[N+](=O)[O-] (stereo not drawn) | > 100 µM (inactive) | > 100 µM (inactive) | > 100 µM (inactive) | > 100 µM (inactive) | > 100 µM (inactive) | > 100 µM (inactive) | 53.6 µM (inactive) | > 100 µM (inactive) | > 100 µM (inactive) | > 100 µM (inactive) | > 100 µM (inactive) | 54.6 µM | 64.9 µM (inactive) | > 100 µM (inactive) | > 100 µM (inactive) | > 100 µM (inactive) | 87.7 µM (inactive) | > 100 µM (inactive) |  | > 100 µM (inactive)
11 | Cc1nc2ccc(S(=O)(=O)Nc3nccs3)cc2c(=O)n1NS(=O)(=O)c1nccs1 | 58.7 µM (inactive) |  | 69.7 µM (inactive) | > 100 µM (inactive) | > 100 µM (inactive) | 86.9 µM (inactive) | > 100 µM (inactive) | > 100 µM (inactive) | > 100 µM (inactive) | > 100 µM (inactive) | > 100 µM (inactive) | > 100 µM | 50.2 µM (inactive) | > 100 µM (inactive) | > 100 µM (inactive) | > 100 µM (inactive) |  | > 100 µM (inactive) |  | 
12 | CN(Cc1cnc2nc(N)nc(N)c2n1)c1ccc(C(=O)N[C@@H](CCS(=O)(=O)O)C(=O)O)cc1 | 0.0766 µM (active) | 0.182 µM (active) | > 100 µM (inactive) | > 100 µM (inactive) |  | 0.0459 µM (active) | > 100 µM (inactive) | 51.5 µM (inactive) |  | > 100 µM (inactive) | 0.614 µM (active) | 0.0514 µM | 0.169 µM (active) | > 100 µM (inactive) | 0.151 µM (active) | > 100 µM (inactive) | 0.0352 µM (active) | > 100 µM (inactive) | 0.0755 µM (active) | 0.0583 µM (active)
13 | N#CC1(c2nc3ccccc3o2)C(=O)C(=O)N(C2C3CC4CC(C3)CC2C4)C(=O)C1=O (stereo not drawn) | > 100 µM (inactive) | > 100 µM (inactive) | > 100 µM (inactive) | > 100 µM (inactive) | > 100 µM (inactive) |  | > 100 µM (inactive) | > 100 µM (inactive) | > 100 µM (inactive) | > 100 µM (inactive) | > 100 µM (inactive) | > 100 µM | > 100 µM (inactive) | > 100 µM (inactive) | > 100 µM (inactive) | 84.9 µM (inactive) | > 100 µM (inactive) | > 100 µM (inactive) | > 100 µM (inactive) | > 100 µM (inactive)
14 | COc1cc(C)cc(OC)c1/C=C/C(=O)O | > 100 µM (inactive) | > 100 µM (inactive) | > 100 µM (inactive) | > 100 µM (inactive) |  | > 100 µM (inactive) | > 100 µM (inactive) | > 100 µM (inactive) | > 100 µM (inactive) | > 100 µM (inactive) |  | > 100 µM | > 100 µM (inactive) | > 100 µM (inactive) | > 100 µM (inactive) | > 100 µM (inactive) | > 100 µM (inactive) | > 100 µM (inactive) | > 100 µM (inactive) | > 100 µM (inactive)
15 | BrP(NC1CCCCCC1)(c1ccccc1)(c1ccccc1)c1ccccc1 | 3.03 µM (inactive) | 5.94 µM (inactive) | 2.74 µM (inactive) | 3.55 µM (inactive) |  | 1.56 µM (inactive) |  | 13.5 µM (inactive) | 18 µM (inactive) | 2.4 µM (inactive) | 14.1 µM (inactive) | 18.8 µM | 1.33 µM (inactive) | 1.86 µM (inactive) | 2.88 µM (inactive) |  | 4.74 µM (inactive) | 5.06 µM (inactive) | 3.88 µM (inactive) | 7.53 µM (inactive)
16 | COC(=O)[C@H](Cc1ccc(O)cc1)NC(=O)[C@H](Cc1ccc(O)cc1)NC(=O)OC(C)(C)C (Boc-Tyr-Tyr-OMe) | > 100 µM (inactive) | > 100 µM (inactive) |  |  | > 100 µM (inactive) | > 100 µM (inactive) |  | > 100 µM (inactive) | > 100 µM (inactive) |  | 82.2 µM (inactive) | > 100 µM | > 100 µM (inactive) | > 100 µM (inactive) | > 100 µM (inactive) |  | > 100 µM (inactive) |  |  | > 100 µM (inactive)
